According to the NIST ThermoML archive (doi:10.1016/j.jct.2006.09.017):
Numbers after ± are expanded uncertainties.

Assays:
[1] = 101.33 kPa, Liquid
[2] = xn = mol fraction of the nth substance listed; conditions: 101 kPa, Liquid

CN1CCN(C)C1=O [1,3-dimethyl-2-imidazolidinone]
[1]
Conditions	mass density [kg/m3]
283.15 K	1064.86 ± 0.12
298.15 K	1051.59 ± 0.11
313.15 K	1038.38 ± 0.1

CN1CCN(C)C1=O [1,3-dimethyl-2-imidazolidinone] + CCCCCCCCO
mass density [kg/m3], [2]
Conditions	x1 = 0.09996	x1 = 0.2	x1 = 0.3002	x1 = 0.4001	x1 = 0.5	x1 = 0.599	x1 = 0.7002	x1 = 0.7996	x1 = 0.8999
283.15 K	848.3 ± 0.39	865.7 ± 0.36	884.37 ± 0.33	904.35 ± 0.3	925.89 ± 0.28	948.94 ± 0.24	974.48 ± 0.19	1001.78 ± 0.15	1031.95 ± 0.18
298.15 K	837.74 ± 0.41	854.88 ± 0.38	873.28 ± 0.35	893.01 ± 0.32	914.29 ± 0.29	937.08 ± 0.25	962.3 ± 0.21	989.29 ± 0.16	1019.12 ± 0.16
313.15 K	827.05 ± 0.42	843.97 ± 0.39	862.14 ± 0.37	881.63 ± 0.34	902.66 ± 0.31	925.21 ± 0.27	950.12 ± 0.22	976.81 ± 0.18	1006.31 ± 0.14

CN1CCN(C)C1=O [1,3-dimethyl-2-imidazolidinone] + CCCCCCCO
mass density [kg/m3], [2]
Conditions	x1 = 0.09996	x1 = 0.1999	x1 = 0.3001	x1 = 0.4	x1 = 0.5	x1 = 0.6001	x1 = 0.7	x1 = 0.8001	x1 = 0.8992
283.15 K	847.64 ± 0.39	866.92 ± 0.36	887.24 ± 0.33	908.58 ± 0.3	931.08 ± 0.27	954.87 ± 0.23	979.95 ± 0.18	1006.61 ± 0.15	1034.61 ± 0.19
298.15 K	836.89 ± 0.41	855.89 ± 0.38	875.96 ± 0.35	897.05 ± 0.32	919.28 ± 0.29	942.82 ± 0.25	967.68 ± 0.2	994.04 ± 0.15	1021.77 ± 0.17
313.15 K	826.03 ± 0.43	844.8 ± 0.39	864.62 ± 0.36	885.45 ± 0.33	907.49 ± 0.31	930.78 ± 0.26	955.41 ± 0.22	981.47 ± 0.17	1009.02 ± 0.15

CN1CCN(C)C1=O [1,3-dimethyl-2-imidazolidinone] + CCCCCCO
mass density [kg/m3], [2]
Conditions	x1 = 0.1	x1 = 0.2	x1 = 0.3	x1 = 0.4001	x1 = 0.5	x1 = 0.6001	x1 = 0.7002	x1 = 0.7998	x1 = 0.9001
283.15 K	847.11 ± 0.39	868.74 ± 0.36	890.96 ± 0.32	913.77 ± 0.29	937.21 ± 0.27	961.32 ± 0.22	986.12 ± 0.17	1011.48 ± 0.16	1037.74 ± 0.19
298.15 K	836.15 ± 0.41	857.49 ± 0.38	879.43 ± 0.34	901.99 ± 0.31	925.23 ± 0.28	949.12 ± 0.24	973.62 ± 0.19	998.72 ± 0.14	1024.71 ± 0.17
313.15 K	825.02 ± 0.43	846.12 ± 0.39	867.81 ± 0.36	890.13 ± 0.33	913.07 ± 0.3	936.71 ± 0.25	961.04 ± 0.21	985.96 ± 0.16	1011.88 ± 0.15

CN1CCN(C)C1=O [1,3-dimethyl-2-imidazolidinone] + CCCCCO
mass density [kg/m3], [2]
Conditions	x1 = 0.1	x1 = 0.2	x1 = 0.3	x1 = 0.4001	x1 = 0.5001	x1 = 0.6001	x1 = 0.7	x1 = 0.8002	x1 = 0.9
283.15 K	846.41 ± 0.38	870.95 ± 0.35	895.43 ± 0.31	919.88 ± 0.28	944.23 ± 0.25	968.5 ± 0.21	992.7 ± 0.16	1016.92 ± 0.16	1040.93 ± 0.19
298.15 K	835.16 ± 0.4	859.39 ± 0.36	883.62 ± 0.33	907.84 ± 0.3	931.97 ± 0.27	956.02 ± 0.22	980.01 ± 0.18	1004.03 ± 0.14	1027.87 ± 0.17
313.15 K	823.75 ± 0.42	847.72 ± 0.38	871.72 ± 0.35	895.74 ± 0.31	919.68 ± 0.29	943.56 ± 0.24	967.36 ± 0.2	991.25 ± 0.15	1014.87 ± 0.15

CN1CCN(C)C1=O [1,3-dimethyl-2-imidazolidinone] + CCCCO
mass density [kg/m3], [2]
Conditions	x1 = 0.09992	x1 = 0.2	x1 = 0.3	x1 = 0.4002	x1 = 0.5	x1 = 0.6	x1 = 0.7002	x1 = 0.7999	x1 = 0.9001
283.15 K	846.49 ± 0.38	874.68 ± 0.34	901.72 ± 0.3	927.79 ± 0.27	952.85 ± 0.24	976.95 ± 0.19	1000.25 ± 0.15	1022.61 ± 0.17	1044.18 ± 0.2
298.15 K	834.78 ± 0.39	862.67 ± 0.35	889.49 ± 0.32	915.33 ± 0.28	940.22 ± 0.26	964.19 ± 0.21	987.34 ± 0.16	1009.57 ± 0.15	1031.03 ± 0.18
313.15 K	822.87 ± 0.41	850.54 ± 0.37	877.11 ± 0.33	902.78 ± 0.3	927.48 ± 0.27	951.32 ± 0.23	974.35 ± 0.18	996.45 ± 0.14	1017.84 ± 0.16

CN1CCN(C)C1=O [1,3-dimethyl-2-imidazolidinone] + CCCO
mass density [kg/m3], [2]
Conditions	x1 = 0.09998	x1 = 0.2	x1 = 0.2999	x1 = 0.4001	x1 = 0.4998	x1 = 0.6001	x1 = 0.7	x1 = 0.7999	x1 = 0.9
283.15 K	847.83 ± 0.37	880.77 ± 0.32	910.83 ± 0.28	938.4 ± 0.25	963.7 ± 0.22	987.2 ± 0.17	1008.86 ± 0.15	1028.91 ± 0.18	1047.62 ± 0.2
298.15 K	835.55 ± 0.38	868.25 ± 0.34	898.06 ± 0.3	925.54 ± 0.26	950.74 ± 0.24	974.16 ± 0.19	995.74 ± 0.15	1015.73 ± 0.16	1034.43 ± 0.18
313.15 K	823.05 ± 0.4	855.56 ± 0.36	885.22 ± 0.32	912.63 ± 0.28	937.7 ± 0.25	961.08 ± 0.21	982.62 ± 0.17	1002.67 ± 0.14	1021.31 ± 0.16

CN1CCN(C)C1=O [1,3-dimethyl-2-imidazolidinone] + CCO
mass density [kg/m3], [2]
Conditions	x1 = 0.09998	x1 = 0.2	x1 = 0.3001	x1 = 0.3999	x1 = 0.4996	x1 = 0.6002	x1 = 0.6999	x1 = 0.8	x1 = 0.8994
283.15 K	846.13 ± 0.37	886.41 ± 0.31	920.6 ± 0.27	949.96 ± 0.23	975.63 ± 0.2	998.13 ± 0.15	1017.79 ± 0.16	1035.31 ± 0.19	1050.79 ± 0.21
298.15 K	833.1 ± 0.39	873.26 ± 0.33	907.41 ± 0.29	936.72 ± 0.25	962.36 ± 0.22	984.83 ± 0.17	1004.56 ± 0.15	1022.19 ± 0.17	1037.59 ± 0.19
313.15 K	819.85 ± 0.41	859.85 ± 0.35	893.96 ± 0.31	923.29 ± 0.27	948.92 ± 0.24	971.48 ± 0.19	991.29 ± 0.15	1008.94 ± 0.15	1024.41 ± 0.17

CN1CCN(C)C1=O [1,3-dimethyl-2-imidazolidinone] + CO
mass density [kg/m3], [2]
Conditions	x1 = 0.09987	x1 = 0.1999	x1 = 0.2999	x1 = 0.4	x1 = 0.4985	x1 = 0.6002	x1 = 0.7001	x1 = 0.8002	x1 = 0.9003
283.15 K	866.6 ± 0.34	914.65 ± 0.27	950.88 ± 0.22	978.91 ± 0.19	1000.83 ± 0.16	1019.06 ± 0.17	1033.62 ± 0.18	1045.88 ± 0.2	1056.16 ± 0.22
298.15 K	852.53 ± 0.36	900.56 ± 0.29	936.99 ± 0.24	965.04 ± 0.21	987.09 ± 0.18	1005.48 ± 0.15	1020.04 ± 0.16	1032.47 ± 0.18	1042.89 ± 0.19
313.15 K	838.25 ± 0.38	886.37 ± 0.32	922.85 ± 0.27	951.05 ± 0.23	973.2 ± 0.2	991.72 ± 0.16	1006.43 ± 0.14	1019.04 ± 0.16	1029.49 ± 0.17

CCCCO [butan-1-ol]
[1]
Conditions	mass density [kg/m3]
283.15 K	817.18 ± 0.22
298.15 K	805.79 ± 0.23
313.15 K	794.18 ± 0.24

CCO [ethanol]
[1]
Conditions	mass density [kg/m3]
283.15 K	797.88 ± 0.22
298.15 K	785.13 ± 0.24
313.15 K	772.05 ± 0.25

CCCCCCCO [heptan-1-ol]
[1]
Conditions	mass density [kg/m3]
283.15 K	829.27 ± 0.43
298.15 K	818.78 ± 0.45
313.15 K	808.11 ± 0.46

CCCCCCO [hexan-1-ol]
[1]
Conditions	mass density [kg/m3]
283.15 K	826.03 ± 0.43
298.15 K	815.34 ± 0.45
313.15 K	804.46 ± 0.47

CO [methanol]
[1]
Conditions	mass density [kg/m3]
283.15 K	800.62 ± 0.22
298.15 K	786.56 ± 0.23
313.15 K	772.32 ± 0.25

CCCCCCCCO [octan-1-ol]
[1]
Conditions	mass density [kg/m3]
283.15 K	832.06 ± 0.43
298.15 K	821.72 ± 0.44
313.15 K	811.21 ± 0.46

CCCCCO [pentan-1-ol]
[1]
Conditions	mass density [kg/m3]
283.15 K	821.81 ± 0.23
298.15 K	810.88 ± 0.23
313.15 K	799.71 ± 0.24

CCCO [propan-1-ol]
[1]
Conditions	mass density [kg/m3]
283.15 K	811.54 ± 0.21
298.15 K	799.59 ± 0.22
313.15 K	787.36 ± 0.23
